# From patent publication US20250154144A1 (CHILDREN'S HOSPITAL MEDICAL CENTER, priority 2021, published 2025)
# Test system: THP1 cells
# Experiment: Combination drug screening, Cell Titer Glo, 10 × 10 matrix, THP1 cells
# Assay type: cell-based
# Details: single compound range 0-10,000 nM or 0-20,000 nM
compound,measurement,setting,value
"COc1cc2ncc(-c3ccnc(N[C@@H]4CCCNC4)n3)n2cc1C(C)(C)O [Compound 44, (R)-2-(7-methoxy-3-(2-(piperidin-3-ylamino)pyrimidin-4-yl)imidazo[1,2-a]pyridin-6-yl)propan-2-ol]",Comments,with (+)-BAY-1251152,Synergistic
same,Excess HSA Score,with (+)-BAY-1251152,−516.5
same,Comments,with AMG-232,Antagonistic
same,Excess HSA Score,with AMG-232,733.5
same,Comments,with AZD-5363,Antagonistic
same,Excess HSA Score,with AZD-5363,35.78
same,Comments,with Eprenetapopt/APR-246,Antagonistic
same,Excess HSA Score,with Eprenetapopt/APR-246,460.1
same,Comments,with Ivosidenib,Synergistic
same,Excess HSA Score,with Ivosidenib,−47.26
same,Comments,with Lenalidomide,Antagonistic
same,Excess HSA Score,with Lenalidomide,877.5
same,Comments,with Palbociclib,Synergistic
same,Excess HSA Score,with Palbociclib,−764
same,Comments,with Prednisolone,Antagonistic
same,Excess HSA Score,with Prednisolone,68.4575
same,Comments,with SNDX-5613,Antagonistic
same,Excess HSA Score,with SNDX-5613,337.7
same,Comments,with TNO-155,Synergistic
same,Excess HSA Score,with TNO-155,−62.85
same,Comments,with Trametinib,Synergistic
same,Excess HSA Score,with Trametinib,−453.2
same,Comments,with Ulixertinib,Synergistic
same,Excess HSA Score,with Ulixertinib,−572.2
same,Comments,with Venetoclax (ABT-199),Synergistic
same,Excess HSA Score,with Venetoclax (ABT-199),−1159
